Among the data in US20250368627A1, “PYRAZOLESULFONAMIDES AS ANTITUMOR AGENTS” (Peloton Therapeutics, Inc., a fully owned subsidiary of …, priority 2019, published 2025) are IC50 and EC50 values, retold here.

Molecules are shown by their SMILES.

The target in assay [1] is T1, DDB1DB/DCAF15 and RBM39 R1R2 complex (Homo sapiens, UniProt Q14498+Q66K64).
T1 construct: Amino acids 150 to 331 of RBM39 were cloned into pGEX4T3; GST (from vector pGEX4T3); TEV cleavage site (N); made in house; host or cells: DDB1DB/His-DCAF15: baculovirus/Sf9 co-expression; RBM39 R1R2: E. coli (pGEX4T3)
T1 sequence (Q66K64 whole entry, the tested form may be a part): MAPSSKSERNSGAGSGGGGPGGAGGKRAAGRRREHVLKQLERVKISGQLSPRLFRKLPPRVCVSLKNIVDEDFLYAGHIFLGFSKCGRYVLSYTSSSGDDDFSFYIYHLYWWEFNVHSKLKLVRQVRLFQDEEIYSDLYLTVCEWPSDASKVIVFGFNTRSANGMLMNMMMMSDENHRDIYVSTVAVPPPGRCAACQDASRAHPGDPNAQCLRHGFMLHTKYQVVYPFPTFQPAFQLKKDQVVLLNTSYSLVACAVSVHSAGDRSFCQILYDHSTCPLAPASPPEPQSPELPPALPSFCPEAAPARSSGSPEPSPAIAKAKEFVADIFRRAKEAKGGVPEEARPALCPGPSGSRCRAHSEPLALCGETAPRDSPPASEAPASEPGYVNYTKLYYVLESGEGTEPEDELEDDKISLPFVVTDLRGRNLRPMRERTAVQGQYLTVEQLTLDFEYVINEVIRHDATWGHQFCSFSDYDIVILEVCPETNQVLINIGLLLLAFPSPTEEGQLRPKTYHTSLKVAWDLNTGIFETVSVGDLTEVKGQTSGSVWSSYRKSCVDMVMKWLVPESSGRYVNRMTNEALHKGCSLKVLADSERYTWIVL
T1 sequence (Q14498 150-331): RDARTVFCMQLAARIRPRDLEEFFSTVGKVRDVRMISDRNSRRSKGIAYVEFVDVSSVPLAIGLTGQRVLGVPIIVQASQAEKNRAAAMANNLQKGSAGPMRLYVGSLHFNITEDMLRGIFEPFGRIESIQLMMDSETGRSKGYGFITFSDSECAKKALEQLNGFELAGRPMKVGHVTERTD
T1 sequence (Q16531 with tags, fused parts or gaps DEL396-708 partner): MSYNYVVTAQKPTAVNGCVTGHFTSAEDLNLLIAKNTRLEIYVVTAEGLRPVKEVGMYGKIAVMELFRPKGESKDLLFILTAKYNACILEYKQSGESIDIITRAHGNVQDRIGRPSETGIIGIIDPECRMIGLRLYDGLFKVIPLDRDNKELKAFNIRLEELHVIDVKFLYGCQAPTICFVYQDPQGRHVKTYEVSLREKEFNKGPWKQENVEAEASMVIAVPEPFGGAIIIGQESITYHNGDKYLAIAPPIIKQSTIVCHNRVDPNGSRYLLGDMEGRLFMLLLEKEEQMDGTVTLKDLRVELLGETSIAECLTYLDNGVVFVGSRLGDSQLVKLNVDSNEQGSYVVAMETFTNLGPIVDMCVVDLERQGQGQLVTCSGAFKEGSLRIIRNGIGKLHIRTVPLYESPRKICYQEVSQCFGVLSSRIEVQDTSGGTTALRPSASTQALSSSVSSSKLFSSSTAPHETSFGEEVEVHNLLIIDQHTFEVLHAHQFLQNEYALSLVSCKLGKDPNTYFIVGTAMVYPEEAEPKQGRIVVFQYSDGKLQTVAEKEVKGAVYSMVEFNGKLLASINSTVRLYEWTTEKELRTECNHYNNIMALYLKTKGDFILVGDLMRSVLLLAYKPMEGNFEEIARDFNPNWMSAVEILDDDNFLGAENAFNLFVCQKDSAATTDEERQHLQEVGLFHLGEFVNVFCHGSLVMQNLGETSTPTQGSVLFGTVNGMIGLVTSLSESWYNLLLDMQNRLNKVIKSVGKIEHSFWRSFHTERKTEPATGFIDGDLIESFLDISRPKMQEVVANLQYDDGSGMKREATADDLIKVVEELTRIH
The experiment in a line: DCAF15 RBM39 Complex Formation Assay (FRET). In kind it is binding. Particulars: FRET ratio Em 665/Em 615, incubated overnight at 4° C. The gist of the method: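 Ternary complex formation read by TR-FRET (Em 665/615, excitation 340 nm) after overnight incubation at 4° C of 20 nM baculovirus DDB1DB/His-DCAF15 and 50 nM E. coli RBM39 RRM1-RRM2 FLAG fragment with 14-point, 3-fold compound dilutions from 1 μM; EC50 from 4-parameter fit.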

Assay [2] concerns HCT116 human colorectal carcinoma cells. The assay is described as follows: CellTiter-Glo Luminescent Cell Viability Assay. In kind it is cell-based. Particulars: HCT-116, 72 h, 3 days. The gist of the method:
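HCT116 cells were exposed for 3 days to compound in triplicate at final concentrations of 5 to 0.0002 […] (1:3 dilutions). Viability was read by CellTiter-Glo luminescence, and IC50 values were calculated.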

For `COC(Cn1cc(S(=O)(=O)Nc2cccc3c(Cl)c[nH]c23)cn1)OC` [Compound 32, N-(3-chloro-1H-indol-7-yl)-1-(2,2-dimethoxyethyl)pyrazole-4-sulfonamide], the IC50 (usually the concentration that inhibits the measured activity by half) in assay [1] was less than 250 nM. Further, the EC50 (as a rule, the midpoint of the concentration-response curve) in assay [2] lay within 250 to 1000 nM.

Regarding `CC(C)(CO)n1cc(S(=O)(=O)Nc2ccc(Cl)c3c(C#N)c[nH]c23)cn1` [Compound 171, N-(4-chloro-3-cyano-1H-indol-7-yl)-1-(2-hydroxy-1,1-dimethyl-ethyl)pyrazole-4-sulfonamide], the 50% inhibitory concentration (IC50) in assay [1] is less than 250 nM. The 50% effective concentration (EC50) in assay [2] is less than 250 nM.

As to `Cn1cc(S(=O)(=O)Nc2cccc3c(C#N)c[nH]c23)cn1` [Compound 46, N-(3-cyano-1H-indol-7-yl)-1-methyl-pyrazole-4-sulfonamide], in assay [1], the IC50 is less than 250 nM. Moreover, in assay [2], the half-maximal effective concentration (EC50) was in the range of 250 to 1000 nM.

Turning to `N#Cc1c[nH]c2c(NS(=O)(=O)c3cnn(C(F)CO)c3)ccc(F)c12` (centres unmarked) [Compound 298, N-(3-cyano-4-fluoro-1H-indol-7-yl)-1-(1-fluoro-2-hydroxy-ethyl)pyrazole-4-sulfonamide], the half-inhibitory concentration (IC50) in assay [1] is less than 250 nM. In addition, the half-maximal effective concentration (EC50) in assay [2] fell in the range of 250 to 1000 nM.

Regarding `O=S(=O)(Nc1cccc2c(Cl)c[nH]c12)c1cnn(CC2CC(F)(F)C2)c1` [Compound 53, N-(3-chloro-1H-indol-7-yl)-1-[(3,3-difluorocyclobutyl)methyl]pyrazole-4-sulfonamide], the IC50 in assay [1] is less than 250 nM. For the same compound, the concentration for a half-maximal effect (EC50) in assay [2] is more than 1000 nM.

For the compound `CC(C)(O)CCn1cc(S(=O)(=O)Nc2ccc(Cl)c3c(C#N)c[nH]c23)cn1` [Compound 220, N-(4-chloro-3-cyano-1H-indol-7-yl)-1-(3-hydroxy-3-methyl-butyl)pyrazole-4-sulfonamide], the IC50 in assay [1] is less than 250 nM. The EC50 in assay [2] lay in the range of 250 to 1000 nM.

As to `N#Cc1c[nH]c2c(NS(=O)(=O)c3cnn(CF)c3)ccc(F)c12` [Compound 302, N-(3-cyano-4-fluoro-1H-indol-7-yl)-1-(fluoromethyl)pyrazole-4-sulfonamide], the IC50 in assay [1] is less than 250 nM. Also, the 50% effective concentration (EC50) in assay [2] was 250 to 1000 nM.

For the compound `C[C@@H](CO)n1cc(S(=O)(=O)Nc2ccc(Cl)c3c(C#N)c[nH]c23)cn1` [Compound 266, N-(4-chloro-3-cyano-1H-indol-7-yl)-1-[(1S)-2-hydroxy-1-methyl-ethyl]pyrazole-4-sulfonamide], the IC50 in assay [1] was less than 250 nM. In assay [2], the concentration giving a half-maximal response (EC50) fell in the range of 250 to 1000 nM.

As to `COC1CC(n2cc(S(=O)(=O)Nc3ccc(Cl)c4c(C#N)c[nH]c34)cn2)C1` (centres unmarked) [Compound 189, N-(4-chloro-3-cyano-1H-indol-7-yl)-1-(3-methoxycyclobutyl)pyrazole-4-sulfonamide], in assay [1], the IC50 was less than 250 nM. In addition, the EC50 in assay [2] lay within 250 to 1000 nM.

For `CC(C)(C)n1cc(S(=O)(=O)Nc2cccc3c(Cl)c[nH]c23)cn1` [Compound 95, 1-tert-butyl-N-(3-chloro-1H-indol-7-yl)pyrazole-4-sulfonamide], the IC50 in assay [1] is less than 250 nM. Also, the EC50 in assay [2] lay in the range of 250 to 1000 nM.

On to `Cc1ccc(NS(=O)(=O)c2cnn(C(F)CO)c2)c2[nH]cc(C#N)c12` (centres unmarked) [Compound 297, N-(3-cyano-4-methyl-1H-indol-7-yl)-1-(1-fluoro-2-hydroxy-ethyl)pyrazole-4-sulfonamide], for which the half-maximal inhibitory concentration (IC50) in assay [1] is less than 250 nM. Further, the EC50 in assay [2] is less than 250 nM.

For the compound `CC1(n2cc(S(=O)(=O)Nc3ccc(Cl)c4c(C#N)c[nH]c34)cn2)COC1` [Compound 118, N-(4-chloro-3-cyano-1H-indol-7-yl)-1-(3-methyloxetan-3-yl)pyrazole-4-sulfonamide], the half-maximal inhibitory concentration (IC50) in assay [1] was less than 250 nM. Besides, the concentration giving a half-maximal response (EC50) in assay [2] is less than 250 nM.

Consider `Cn1cc(S(=O)(=O)Nc2ccc(F)c3c(Cl)c[nH]c23)cn1` [Compound 54, N-(3-chloro-4-fluoro-1H-indol-7-yl)-1-methyl-pyrazole-4-sulfonamide], for which the half-inhibitory concentration (IC50) in assay [1] is less than 250 nM. Moreover, the EC50 in assay [2] lay in the range of 250 to 1000 nM.

With `NCCn1cc(S(=O)(=O)Nc2cccc3c(Cl)c[nH]c23)cn1` [Compound 34, 1-(2-aminoethyl)-N-(3-chloro-1H-indol-7-yl)pyrazole-4-sulfonamide], the half-maximal inhibitory concentration (IC50) in assay [1] was less than 250 nM. Moreover, the 50% effective concentration (EC50) in assay [2] is more than 1000 nM.

Consider `C[C@H](CO)n1ncc(S(=O)(=O)Nc2ccc(Cl)c3c(C#N)c[nH]c23)c1N` [Compound 306, 5-amino-N-(4-chloro-3-cyano-1H-indol-7-yl)-1-[(1R)-2-hydroxy-1-methyl-ethyl]pyrazole-4-sulfonamide], for which the IC50 in assay [1] was less than 250 nM. Besides, the 50% effective concentration (EC50) in assay [2] is 250 to 1000 nM.

With `Cc1ccc(NS(=O)(=O)c2cnn(C(C)(C)CO)c2)c2[nH]cc(C#N)c12` [Compound 198, N-(3-cyano-4-methyl-1H-indol-7-yl)-1-(2-hydroxy-1,1-dimethyl-ethyl)pyrazole-4-sulfonamide], in assay [1], the IC50 was less than 250 nM. In addition, the concentration for a half-maximal effect (EC50) in assay [2] was less than 250 nM.

`C[C@H](CO)n1cc(S(=O)(=O)Nc2ccc(F)c3c(C#N)c[nH]c23)cn1` [Compound 212, (R)—N-(3-cyano-4-fluoro-1H-indol-7-yl)-1-(1-hydroxypropan-2-yl)-1H-pyrazole-4-sulfonamide]: the IC50 in assay [1] is less than 250 nM. In addition, in assay [2], the EC50 was in the range of 250 to 1000 nM.

With `N#Cc1c[nH]c2c(NS(=O)(=O)c3cnn(C[C@H](N)C(F)(F)F)c3)ccc(Cl)c12` [Compound 248, 1-[(2S)-2-amino-3,3,3-trifluoro-propyl]-N-(4-chloro-3-cyano-1H-indol-7-yl)pyrazole-4-sulfonamide], the concentration for half-maximal inhibition (IC50) in assay [1] is less than 250 nM. In addition, the EC50 in assay [2] was 250 to 1000 nM.

For the compound `CC(C)(CCO)n1cc(S(=O)(=O)Nc2ccc(Cl)c3c(C#N)c[nH]c23)cn1` [Compound 230, N-(4-chloro-3-cyano-1H-indol-7-yl)-1-(3-hydroxy-1,1-dimethyl-propyl)pyrazole-4-sulfonamide], in assay [1], the IC50 was less than 250 nM. In addition, the EC50 in assay [2] was less than 250 nM.

In the case of `Cc1ccc(NS(=O)(=O)c2cnn(C3CCOC3)c2)c2[nH]cc(C#N)c12` (centres unmarked) [Compound 29, N-(3-cyano-4-methyl-1H-indol-7-yl)-1-tetrahydrofuran-3-yl-pyrazole-4-sulfonamide], the IC50 in assay [1] is less than 250 nM. In assay [2], the 50% effective concentration (EC50) lay within 250 to 1000 nM.

On to `Cc1ccc(NS(=O)(=O)c2cnn(CC3(C)COC3)c2)c2[nH]cc(C#N)c12` [Compound 71, N-(3-cyano-4-methyl-1H-indol-7-yl)-1-[(3-methyloxetan-3-yl)methyl]pyrazole-4-sulfonamide], for which the IC50 in assay [1] was less than 250 nM. In addition, the concentration for a half-maximal effect (EC50) in assay [2] lay within 250 to 1000 nM.

With `Cn1cc(S(=O)(=O)Nc2cccc3c(Cl)c[nH]c23)cn1` [Compound 1, N-(3-chloro-1H-indol-7-yl)-1-methyl-1H-pyrazole-4-sulfonamide], the IC50 in assay [1] was less than 250 nM. For the same compound, in assay [2], the EC50 was in the range of 250 to 1000 nM.

For `Cc1ccc(NS(=O)(=O)c2cnn(C3CC4(COC4)C3)c2)c2[nH]cc(C#N)c12` [Compound 85, N-(3-cyano-4-methyl-1H-indol-7-yl)-1-(2-oxaspiro[3.3]heptan-6-yl)pyrazole-4-sulfonamide], in assay [1], the IC50 is less than 250 nM. Further, the EC50 in assay [2] lay within 250 to 1000 nM.

With `O=S(=O)(Nc1ccc(Cl)c2c(Cl)c[nH]c12)c1cnn(C2(CO)COC2)c1` [Compound 167, N-(3,4-dichloro-1H-indol-7-yl)-1-[3-(hydroxymethyl)oxetan-3-yl]pyrazole-4-sulfonamide], the IC50 in assay [1] was less than 250 nM. The 50% effective concentration (EC50) in assay [2] lay in the range of 250 to 1000 nM.

On to `Cc1ccc(NS(=O)(=O)c2cnn(CC(F)F)c2N)c2[nH]cc(C#N)c12` [Compound 277, 5-amino-N-(3-cyano-4-methyl-1H-indol-7-yl)-1-(2,2-difluoroethyl)pyrazole-4-sulfonamide], for which the IC50 in assay [1] is less than 250 nM. The EC50 in assay [2] was less than 250 nM.

In the case of `N#Cc1c[nH]c2c(NS(=O)(=O)c3cnn(CC(F)(F)F)c3)ccc(F)c12` [Compound 216, N-(3-cyano-4-fluoro-1H-indol-7-yl)-1-(2,2,2-trifluoroethyl)pyrazole-4-sulfonamide], in assay [1], the IC50 was less than 250 nM. The EC50 in assay [2] lay within 250 to 1000 nM.

`O=S(=O)(Nc1cccc2c(Cl)c[nH]c12)c1cnn(-c2ncc(Cl)cc2F)c1` [Compound 15, 1-(5-chloro-3-fluoro-2-pyridyl)-N-(3-chloro-1H-indol-7-yl)pyrazole-4-sulfonamide]: the half-inhibitory concentration (IC50) in assay [1] was less than 250 nM. In assay [2], the concentration giving a half-maximal response (EC50) is more than 1000 nM.

On to `O=S(=O)(Nc1cccc2c(Cl)c[nH]c12)c1cnn(C2CNC2)c1` [Compound 18, 1-(azetidin-3-yl)-N-(3-chloro-1H-indol-7-yl)pyrazole-4-sulfonamide], for which the IC50 in assay [1] is 250 to 1000 nM. Also, the EC50 in assay [2] is more than 1000 nM.

For `N#Cc1c[nH]c2c(NS(=O)(=O)c3cnn(C4COC4)c3)ccc(Cl)c12` [Compound 125, N-(4-chloro-3-cyano-1H-indol-7-yl)-1-(oxetan-3-yl)pyrazole-4-sulfonamide], the IC50 in assay [1] is less than 250 nM. Also, in assay [2], the 50% effective concentration (EC50) fell in the range of 250 to 1000 nM.

As to `Cc1ccc(NS(=O)(=O)c2cnn(CC(C)(C)S(C)(=O)=O)c2)c2[nH]cc(C#N)c12` [Compound 84, N-(3-cyano-4-methyl-1H-indol-7-yl)-1-(2-methyl-2-methylsulfonyl-propyl)pyrazole-4-sulfonamide], the IC50 in assay [1] was less than 250 nM. In addition, in assay [2], the EC50 is more than 1000 nM.

As to `Cc1ccc(NS(=O)(=O)c2cn(CC(C)(C)O)nc2F)c2[nH]cc(C#N)c12` [Compound 205, N-(3-cyano-4-methyl-1H-indol-7-yl)-3-fluoro-1-(2-hydroxy-2-methyl-propyl)pyrazole-4-sulfonamide], the IC50 in assay [1] was less than 250 nM. For the same compound, in assay [2], the EC50 fell in the range of 250 to 1000 nM.
